Values belong to the molecule of their own block, whether it stands above or below them.
Columns and labels:
Format in all cases: physicochemical
[1] = Disintegration time according to Japanese Pharmacopoeia
Procedure: The disintegration time of each of six molded products was measured by the use of ion-exchanged water according to the disintegration time measuring method prescribed in the 13th revised Japanese Pharmacopoeia, and the average of measured values was calculated.

[2] = Tablet hardness (Schleuniger hardness meter)
[3] = Apparent specific volume; settings: excipient powder
Text: The whole of 10 g of trehalose powder was gently poured into a 100-ml measuring cylinder without making an impact (in this case, a cylinder having an outside diameter smaller than the inside diameter of the measuring cylinder was placed in the measuring cylinder, and it was slowly lifted after pouring the trehalose), and the apparent specific volume was expressed as a value obtained by dividing the read volume by the weight of the trehalose.

[4] = Water content (Karl Fisher) of tablets before and after storage; settings: tablets compressed at 500 kg/cm^2
Procedure: Determined as a value obtained by measuring about 0.1 g of trehalose and determining its water content by the Karl Fisher method.
One hundred grams of commercial “Trehaose” (available from Hayashibara Biochemical Laboratories, Inc.) was dissolved in water to a concentration of about 35 wt %, and the resulting solution was concentrated under reduced pressure with heating at 60° C. so as to have a concentration of about 75 wt %, and allowed to stand at room temperature to precipitate crystals, which were washed with 50 ml of water. Glucose was removed by carrying out the above purification procedure once or twice, to increase the trehalose purity. Trehalose A was obtained by carrying out the purification procedure twice to obtain crystals, drying the crystals, grinding the dried crystals with a bantam mill (number of revolutions 15,000 rpm, feed rate 5 kg/hr, and screen opening 2.0 mmφ), and then sifting the ground crystals through a […]. Trehalose B was obtained by carrying out the purification procedure once to obtain crystals, drying the crystals, grinding the dried crystals with a bantam mill (number of revolutions 10,000 rpm, feed rate 5 kg/hr, and screen opening 2.00 mmφ), and then sifting the ground crystals through a 350-μm screen. Trehalose C was obtained by carrying out the purification procedure once to obtain crystals, drying the crystals, grinding the dried crystals with a bantam mill (number of revolutions 8,000 rpm, feed rate 5 kg/hr, and screen opening 2.0 mmφ), and then sifting the ground crystals through a 350-μm screen. […] Each of trehaloses A to C was compressed into tablets at a compression pressure of 500 kg/cm^2, and the tablet hardness immediately after the compression and the tablet hardness after standing for 3 days in an atmosphere of 40° C. and 75% RH after the compression were compared.
“Trehaose” (available from Hayashibara Bioscience Laboratories Co., Ltd.) was purified once by the method described in Example 1 to obtain crystals, which were dried, ground with a bantam mill (number of revolutions 12,000 rpm, feed rate 5 kg/hr, and screen opening 2.0 mmφ) and then dried at 105° C. for 4 hours to obtain trehalose anhydrous crystals. These crystals were compressed into tablets at a compression pressure of 500 kg/cm^2, and the tablet hardnesses of the tablets were compared in the same manner as in Example 1.

[5] = Whiteness of powder (color analyzer); settings: excipient powder
Procedure: (§1) For powder of trehalose or a pharmaceutical composition containing trehalose, values of L, a and b were measured with a color analyzer (TC-1800MKII, mfd. by Tokyo Denshoku Co., Ltd.), and the whiteness of the trehalose or pharmaceutical composition was calculated by the following equation: […]

[6] = Change in whiteness of excipient mixed with drug at 40° C. and 75% RH (reactivity)
Procedure: as §1
One gram of each of the trehaloses obtained in Example 1 and 1 g of isoniazid were mixed and then allowed to stand in an atmosphere of 40° C. and 75% RH, and the change in whiteness of the trehalose was observed. On the other hand, 1 g of each of the trehaloses obtained in Example 1 and 1 g of aminophyline were mixed and then allowed to stand in an atmosphere of 40° C. and 75% RH, and the change in whiteness of the trehalose was observed.
One gram of 100-mesh lactose (available from De Melkindustrie Veghel bv) or 1 g of Mannit S (available from Tohwa Kasei Co., Ltd.) and 1 g of aminophyline were mixed and then allowed to stand in an atmosphere of 40° C. and 75% RH, and the change in whiteness of the lactose or Mannit S was observed.
As a starting material. […]

[7] = Average particle size (sieving, 50% cumulative weight); settings: excipient powder
Procedure: Five grams of trehalose was sifted through screens having screen openings of 500 μm, 300 μm and 250 μm, respectively, and then sifted with Air Jet Sieve by using screens having screen openings of 150 μm, 75 μm, 45 μm, 38 μm and 32 μm, respectively. The oversize particle weight percentage [%] was calculated for each screen, and the average particle size is expressed as a particle size corresponding to a cumulative weight percentage of 50%.

[8] = Proportion of particles of 75 μm or more (Air Jet Sieve); settings: excipient powder
Procedure: Five grams of trehalose was weighed onto a screen having a screen opening of 75 μm, and sifted with Air Jet Sieve (Model 200LS, mfd. by ALPINE) for 5 minutes, and the weight percentage of the weight of particles remaining on the screen based on the total weight of particles was calculated as the proportion of particles of 75 μm or more.

[9] = Consolidation of powder during storage; settings: compared with trehaloses B and C
[10] = Angle of repose (Sugiwara's instrument); settings: excipient powder
Text: Measured by means of a Sugiwara's instrument for measuring angle of repose (Yakuzaigaku 27, p. 260, 1965).

[11] = Colour change of molded product stored at 40° C. for 3 months; settings: Example 9 process molded product in glass bottle
Procedure: This molded product and the rapidly disintegrable molded product obtained in Example 9 by using the trehalose B were placed in separate glass bottles, respectively, and stored at 40° C. for 3 months.

[12] = Example 10: as Example 9 but molded at 60 kg/cm^2, listed as A
[13] = ascorbic acid tablets (Example 12), compression pressure 500 kg/cm^2
[14] = ascorbic acid tablets (Example 12), compression pressure 800 kg/cm^2
[15] = Example 10: as Example 9 but molded at 60 kg/cm^2, listed as B

Disintegration time according to Japanese Pharmacopoeia ([1]; Example 8: molded product of trehalose only, 30 kg/cm^2, listed as A): 15 s | Disintegration time according to Japanese Pharmacopoeia [1, 12]: 52 s | Disintegration time according to Japanese Pharmacopoeia [1, 13]: 17 s | Disintegration time according to Japanese Pharmacopoeia [1, 14]: 25 s | Disintegration time according to Japanese Pharmacopoeia ([1]; process of Example 9: 950 g excipient + 50 g phenylpropanolamine hydrochloride, 30 kg/cm^2, listed as A): 16 s | Tablet hardness ([2]; Example 8: molded product of trehalose only, molded at 30 kg/cm^2, dried overnight at 40° C., listed as A): 7.5 kg | Tablet hardness [2, 12]: 10.2 kg | Tablet hardness [2, 13]: 4.0 kgf | Tablet hardness [2, 14]: 7.0 kgf | Tablet hardness ([2]; process of Example 9: 950 g excipient + 50 g phenylpropanolamine hydrochloride, molded at 30 kg/cm^2, listed as A): 7.0 kg | Tablet hardness ([2]; tablets compressed at 500 kg/cm^2, 0 day (immediately after compression), listed as A): 2.6 kgf | Tablet hardness ([2]; tablets compressed at 500 kg/cm^2, 3 days at 40° C. and 75% RH, listed as A): 2.5 kgf | Apparent specific volume ([3]; listed as A): 3.1 cm^3/g | Water content ([4]; 0 day, listed as A): 9.7% | Water content ([4]; 3 days at 40° C. and 75% RH): 9.8% | Whiteness ([5]; listed as A): 98% | Whiteness ([6]; 1 g excipient + 1 g aminophyline, 0 day, listed as A): 100% | Whiteness ([6]; 1 g excipient + 1 g aminophyline, 40° C. and 75% RH, 1 month, listed as A): 98% | Whiteness ([6]; 1 g excipient + 1 g isoniazid, 0 day, listed as A): 98% | Whiteness ([6]; 1 g excipient + 1 g isoniazid, 40° C. and 75% RH, 1 month, listed as A): 97% | Average particle size ([7]; listed as A): 35 μm | Proportion of particles of 75 μm or more ([8]; listed as A): 15% | Consolidation during storage [9]: consolidated during storage | Angle of repose ([10]; listed as A): 48 °
Compound: OC[C@H]1O[C@H](O[C@H]2O[C@H](CO)[C@@H](O)[C@H](O)[C@H]2O)[C@H](O)[C@@H](O)[C@@H]1O [Trehalose A, trehalose]

Disintegration time according to Japanese Pharmacopoeia ([1]; Example 8: molded product of trehalose only, 30 kg/cm^2, listed as B): 12 s | Disintegration time according to Japanese Pharmacopoeia [1, 15]: 45 s | Disintegration time according to Japanese Pharmacopoeia ([1]; process of Example 9: 950 g excipient + 50 g phenylpropanolamine hydrochloride, 30 kg/cm^2, listed as B): 14 s | Tablet hardness ([2]; Example 8: molded product of trehalose only, molded at 30 kg/cm^2, dried overnight at 40° C., listed as B): 6.6 kg | Tablet hardness [2, 15]: 9.4 kg | Tablet hardness ([2]; process of Example 9: 950 g excipient + 50 g phenylpropanolamine hydrochloride, molded at 30 kg/cm^2, listed as B): 6.5 kg | Tablet hardness ([2]; tablets compressed at 500 kg/cm^2, 0 day (immediately after compression), listed as B): 2.5 kgf | Tablet hardness ([2]; tablets compressed at 500 kg/cm^2, 3 days at 40° C. and 75% RH, listed as B): 2.4 kgf | Apparent specific volume ([3]; listed as B): 2.2 cm^3/g | Change in color of molded product [11]: somewhat yellowed | Water content ([4]; 0 day, listed as B): 9.8% | Whiteness ([5]; listed as B): 97% | Whiteness ([6]; 1 g excipient + 1 g aminophyline, 0 day, listed as B): 99% | Whiteness ([6]; 1 g excipient + 1 g aminophyline, 40° C. and 75% RH, 1 month, listed as B): 97% | Whiteness ([6]; 1 g excipient + 1 g isoniazid, 0 day, listed as B): 98% | Whiteness ([6]; 1 g excipient + 1 g isoniazid, 40° C. and 75% RH, 1 month, listed as B): 96% | Average particle size ([7]; listed as B): 72 μm | Proportion of particles of 75 μm or more ([8]; listed as B): 46% | Angle of repose ([10]; listed as B): 42 °
Compound: OC[C@H]1O[C@H](O[C@H]2O[C@H](CO)[C@@H](O)[C@H](O)[C@H]2O)[C@H](O)[C@@H](O)[C@@H]1O [Trehalose B, trehalose]

— patent US20020042393A1, “Excipient” (priority 1998, published 2002)
